≈ marks a conversion by molar mass, not a printed value.
Legend:
Assay in all cases: ≥ marks a high value that may be exact or a test limit, other limits are often not marked, values filed in µg/mL are converted to µM
[1] = system: Bacillus subtilis KCTC 3068
[2] = system: Escherichia coli KCTC 1682
[3] = system: Pseudomonas aeruginosa KCTC 1637
[4] = system: Salmonella typhimurium KCTC 1926
[5] = system: Staphylococcus aureus KCTC 1621
[6] = system: Staphylococcus epidermidis KCTC 1917
[7] = system: Staphylococcus aureus ATCC BAA-1556
[8] = system: Escherichia coli DH5alpha

SMILES | MIC [1] [µM] | MIC [2] [µM] | MIC [3] [µM] | MIC [4] [µM] | MIC [5] [µM] | MIC [6] [µM] | MIC [7] [µM] | MIC [8] [µM]
CC(C)C[C@H](NC(=O)[C@H](C)NC(=O)[C@H](Cc1c[nH]c2ccccc12)NC(=O)[C@H](CCCCN)NC(=O)[C@H](CC(N)=O)NC(=O)[C@H](Cc1c[nH]c2ccccc12)NC(=O)[C@H](CCCCN)NC(=O)[C@H](CCCCN)NC(=O)[C@H](CCCN=C(N)N)NC(=O)[C@@H](N)Cc1ccccc1)C(=O)N[C@@H](CO)C(=O)N[C@@H](CCCN=C(N)N)C(N)=O [FRKKWNKWALSR] | 8 (≈ 13 µg/mL) | 4 (≈ 6.48 µg/mL) | 16 (≈ 25.9 µg/mL) | 4 (≈ 6.48 µg/mL) | 16 (≈ 25.9 µg/mL) | 8 (≈ 13 µg/mL) |  | 
CC[C@H](C)[C@H](N)C(=O)NCC(=O)N[C@@H](CCCCN)C(=O)N[C@@H](CCCCN)C(=O)N[C@@H](Cc1ccccc1)C(=O)N[C@@H](CCCCN)C(=O)N[C@@H](CCCN=C(N)N)C(=O)N[C@H](C(=O)N[C@H](C(=O)N[C@@H](CCCCN)C(=O)N[C@@H](CCCN=C(N)N)C(=O)N[C@H](C(=O)N[C@@H](CCCCN)C(=O)N[C@@H](CCCCN)C(=O)N[C@@H](Cc1c[nH]c2ccccc12)C(=O)N[C@@H](CC(C)C)C(=O)N[C@@H](CCCN=C(N)N)C(=O)N[C@@H](CCCCN)C(=O)N[C@@H](CC(C)C)C(=O)O)[C@@H](C)CC)C(C)C)[C@@H](C)CC [IGKKFKRIVKRIKKWLRKL] | 2 (≈ 4.88 µg/mL) | 4 (≈ 9.76 µg/mL) | 4 (≈ 9.76 µg/mL) | 2 (≈ 4.88 µg/mL) | 2 (≈ 4.88 µg/mL) | 4 (≈ 9.76 µg/mL) |  | 
CC[C@H](C)[C@H](N)C(=O)N[C@@H](CC(C)C)C(=O)NCC(=O)N[C@@H](CCCCN)C(=O)N[C@H](C(=O)N[C@@H](C)C(=O)N[C@@H](CCC(=O)O)C(=O)NCC(=O)N[C@H](C(=O)N[C@@H](CCCCN)C(=O)N[C@@H](CO)C(=O)N[C@@H](CC(C)C)C(=O)N[C@@H](Cc1ccccc1)C(N)=O)[C@@H](C)CC)[C@@H](C)CC [ILGKIAEGIKSLF] |  | ≥ 64 | ≥ 32 | ≥ 64 | ≥ 64 | ≥ 64 |  | 
CC[C@H](C)[C@H](N)C(=O)N[C@@H](CC(C)C)C(=O)N[C@@H](CCCCN)C(=O)N[C@@H](Cc1c[nH]c2ccccc12)C(=O)N[C@@H](CCCCN)C(=O)N[C@@H](Cc1c[nH]c2ccccc12)C(=O)N[C@@H](CCCCN)C(=O)N[C@@H](Cc1c[nH]c2ccccc12)C(=O)N[C@@H](Cc1c[nH]c2ccccc12)C(=O)N[C@@H](CCCCN)C(=O)N[C@@H](Cc1c[nH]c2ccccc12)C(=O)N[C@@H](CCCN=C(N)N)C(=O)N[C@@H](CCCN=C(N)N)C(N)=O [ILKWKWKWWKWRR] | 2.5 (≈ 5 µg/mL) | 5 (≈ 10 µg/mL) | 5 (≈ 10 µg/mL) | 2.5 (≈ 5 µg/mL) | 2.5 (≈ 5 µg/mL) | 5 (≈ 10 µg/mL) |  | 
CC[C@H](C)[C@H](N)C(=O)N[C@@H](CC(C)C)C(=O)N1CCC[C@H]1C(=O)N[C@@H](Cc1c[nH]c2ccccc12)C(=O)N[C@@H](CCCCN)C(=O)N[C@@H](CCCCN)C(=O)N1CCC[C@H]1C(=O)N[C@@H](CCCCN)C(=O)N[C@@H](CCCCN)C(=O)N1CCC[C@H]1C(=O)N[C@@H](CCCCN)C(=O)N[C@@H](CCCN=C(N)N)C(=O)N[C@@H](CCCN=C(N)N)C(N)=O [ILPWKKPKKPKRR] | 5.97 (≈ 9.99 µg/mL) | 5.97 (≈ 9.99 µg/mL) | 5.97 (≈ 9.99 µg/mL) | 2.98 (≈ 5 µg/mL) | 5.97 (≈ 9.99 µg/mL) | 2.98 (≈ 5 µg/mL) |  | 
CC[C@H](C)[C@H](N)C(=O)N[C@@H](CC(C)C)C(=O)N1CCC[C@H]1C(=O)N[C@@H](Cc1c[nH]c2ccccc12)C(=O)N[C@@H](CCCCN)C(=O)N[C@@H](Cc1c[nH]c2ccccc12)C(=O)N1CCC[C@H]1C(=O)N[C@@H](CCCCN)C(=O)N[C@@H](Cc1c[nH]c2ccccc12)C(=O)N1CCC[C@H]1C(=O)N[C@@H](Cc1c[nH]c2ccccc12)C(=O)N[C@@H](CCCN=C(N)N)C(=O)N[C@@H](CCCN=C(N)N)C(N)=O [ILPWKWPKWPWRR] | 5.41 (≈ 9.99 µg/mL) | 2.7 (≈ 5 µg/mL) | 10.8 (≈ 20 µg/mL) | 2.7 (≈ 5 µg/mL) | 2.7 (≈ 5 µg/mL) | 2.7 (≈ 5 µg/mL) |  | 
CC[C@H](C)[C@H](NC(=O)[C@H](Cc1c[nH]c2ccccc12)NC(=O)[C@H](CCCN=C(N)N)NC(=O)[C@H](CCCN=C(N)N)NC(=O)[C@H](C)NC(=O)[C@@H](N)CCCCN)C(=O)N[C@@H](CCCN=C(N)N)C(=O)N[C@@H](Cc1c[nH]c2ccccc12)C(=O)N[C@@H](CC(C)C)C(N)=O [KARRWIRWL] |  |  |  |  |  |  | 25 (≈ 32.1 µg/mL) | 
C[C@@H](O)[C@H](NC(=O)[C@H](CCCCN)NC(=O)[C@H](Cc1c[nH]c2ccccc12)NC(=O)[C@H](Cc1c[nH]c2ccccc12)NC(=O)[C@@H](NC(=O)[C@H](CCCCN)NC(=O)[C@@H](N)CCCCN)[C@@H](C)O)C(=O)N[C@@H](Cc1c[nH]c2ccccc12)C(=O)N[C@@H](Cc1c[nH]c2ccccc12)C(=O)N[C@H](C(=O)N[C@@H](CCCCN)C(=O)N[C@@H](Cc1c[nH]c2ccccc12)C(=O)N[C@@H](CO)C(=O)N[C@@H](CCC(N)=O)C(=O)N1CCC[C@H]1C(=O)O)[C@@H](C)O [KKTWWKTWWTKWSQP] | 2 (≈ 4.15 µg/mL) | 4 (≈ 8.31 µg/mL) | 8 (≈ 16.6 µg/mL) | 4 (≈ 8.31 µg/mL) | 4 (≈ 8.31 µg/mL) | 4 (≈ 8.31 µg/mL) |  | 
CC(C)C[C@H](NC(=O)[C@H](CC(C)C)NC(=O)[C@H](CCCCN)NC(=O)[C@H](CC(C)C)NC(=O)[C@H](CC(C)C)NC(=O)[C@H](Cc1c[nH]c2ccccc12)NC(=O)[C@H](CCCCN)NC(=O)[C@H](CC(C)C)NC(=O)[C@H](CC(C)C)NC(=O)[C@@H](N)CCCCN)C(N)=O [KLLKWLLKLL] |  |  |  |  |  |  | 3.13 (≈ 3.96 µg/mL) | 
CC[C@H](C)[C@H](NC(=O)[C@H](CCCN=C(N)N)NC(=O)[C@H](CCC(N)=O)NC(=O)[C@@H](NC(=O)[C@@H](NC(=O)[C@H](CCCN=C(N)N)NC(=O)[C@@H](N)CCCCN)[C@@H](C)CC)C(C)C)C(=O)N[C@@H](CCCCN)C(=O)N[C@@H](CC(=O)O)C(=O)N[C@@H](Cc1c[nH]c2ccccc12)C(=O)N[C@@H](CC(C)C)C(=O)N[C@@H](CCCN=C(N)N)C(N)=O [KRIVQRIKDWLR] | 4 (≈ 6.44 µg/mL) | 2 (≈ 3.22 µg/mL) | 8 (≈ 12.9 µg/mL) | 4 (≈ 6.44 µg/mL) | 2 (≈ 3.22 µg/mL) | 1 (≈ 1.61 µg/mL) |  | 
CC[C@H](C)[C@H](NC(=O)[C@H](C)NC(=O)[C@H](CCCN=C(N)N)NC(=O)[C@@H]1CCCN1C(=O)[C@H](CC(C)C)NC(=O)[C@H](CC(N)=O)NC(=O)[C@H](Cc1ccc(O)cc1)NC(=O)CNC(=O)[C@H](C)NC(=O)[C@@H](NC(=O)[C@@H](NC(=O)[C@@H](NC(=O)[C@H](CCCN=C(N)N)NC(=O)[C@@H](NC(=O)[C@@H](NC(=O)[C@H](CC(C)C)NC(=O)[C@H](Cc1ccc(O)cc1)NC(=O)[C@H](Cc1c[nH]c2ccccc12)NC(=O)[C@@H](NC(=O)[C@H](CCCN=C(N)N)NC(=O)[C@H](CCCCN)NC(=O)[C@@H](NC(=O)[C@@H](N)CCCN=C(N)N)C(C)C)C(C)C)C(C)C)[C@@H](C)CC)[C@@H](C)O)C(C)C)[C@@H](C)CC)C(=O)N[C@@H](CCCCN)C(=O)N[C@@H](CCCCN)C(=O)N[C@@H](CCCCN)C(=O)O [RVKRVWYLVIRTVIAGYNLPRAIKKK] | 8 (≈ 25.1 µg/mL) | 4 (≈ 12.6 µg/mL) | 8 (≈ 25.1 µg/mL) | 8 (≈ 25.1 µg/mL) | 8 (≈ 25.1 µg/mL) | 8 (≈ 25.1 µg/mL) |  | 
C[C@@H](O)[C@H](NC(=O)[C@H](CCCN=C(N)N)NC(=O)[C@H](CCCN=C(N)N)NC(=O)[C@H](CC(N)=O)NC(=O)[C@H](Cc1c[nH]c2ccccc12)NC(=O)[C@H](CCCN=C(N)N)NC(=O)[C@H](Cc1c[nH]c2ccccc12)NC(=O)[C@@H](N)CCCN=C(N)N)C(=O)NCC(=O)N[C@@H](CCCN=C(N)N)C(=O)N[C@@H](Cc1c[nH]c2ccccc12)C(=O)N[C@@H](CCCN=C(N)N)C(=O)N[C@@H](Cc1c[nH]c2ccccc12)C(=O)N[C@@H](Cc1ccc(O)cc1)C(=O)O [RWRWNRRTGRWRWY] |  |  |  |  |  |  |  | 12.5 (≈ 26.7 µg/mL)

Source: DBAASP
